The values that follow come from US20120190719A1, “METHODS OF TREATING MOTOR DISORDERS WITH ALPHA-2B ANDRENERGIC RECEPTOR AGONISTS” (ALLERGAN, INC., priority 2009, published 2012).

This assay concerns C57B/6 male mice. Kind of assay: Defensive burying (marble burying task). The class given is in vivo. To be noted: WT mice; 300 ug/kg IP 30 minutes prior to defensive burying testing; marbles buried more than 2/3 after 30 minutes; N = 6/group; vehicle 46.40%. An excerpt:
The usefulness of alpha-2B receptor agonists in treating compulsive disorders are exemplified in a widely-used rodent model of compulsive behavior, the marble burying task. Absence of alpha2B receptor activity, either following treatment with an alpha2B receptor antagonist or in alpha2B receptor knockout mice, results in increased compulsive behavior in the marble burying task. […] Two alpha2B agonists used by the inventors, each belonging to a different compound class, are: Compound A, an imidazole thione, and Compound B, an imidazole amine.
Defensive burying: C57B/6 male mice (25-30 g) individually placed into plexiglass mouse cages filled with standard mouse bedding in their housing room. Each cage contained 7 small marbles (diameter 1 cm) and 7 larger marbles (diameter 1.5 cm). Mice remained in the cages for 30 minutes, after which time they were removed from their home cage and the number of marbles buried more than ⅔ was counted. Animals in treatment groups (Table 3) were administered compound IP (1 ml/kg) 30 min prior to testing.
For Table 2, data were evaluated by One-way ANOVA for overall effect of genotype [F(4,57)=4.155; P=0.0053]. Because the 2B WT is the only control for the 2B KO, an unpaired T-test was used to compare differences between 2B WT and 2B KO. For Table 3, data were evaluated by unpaired T-Test.

Marks after values point to notes of the source that are not given here.

For the compound `CN1CCc2c(C#N)c(N)n(C)c(=S)c2C1` [Compound C], the “% Buried” value is reported as 61.90%**.
